The text below walks through data of patent US5807860A, “Urea derivatives” (Mitsubishi Chemical Corporation, priority 1995, dated 1998).

Counter-ions that a name gives are not always drawn.

For the first test, the target named is T1, ACAT of HepG2 cells (Homo sapiens, UniProt P35610).
T1 construct: endogenous in cells; host or cells: HepG2
T1 sequence (P35610 1-550): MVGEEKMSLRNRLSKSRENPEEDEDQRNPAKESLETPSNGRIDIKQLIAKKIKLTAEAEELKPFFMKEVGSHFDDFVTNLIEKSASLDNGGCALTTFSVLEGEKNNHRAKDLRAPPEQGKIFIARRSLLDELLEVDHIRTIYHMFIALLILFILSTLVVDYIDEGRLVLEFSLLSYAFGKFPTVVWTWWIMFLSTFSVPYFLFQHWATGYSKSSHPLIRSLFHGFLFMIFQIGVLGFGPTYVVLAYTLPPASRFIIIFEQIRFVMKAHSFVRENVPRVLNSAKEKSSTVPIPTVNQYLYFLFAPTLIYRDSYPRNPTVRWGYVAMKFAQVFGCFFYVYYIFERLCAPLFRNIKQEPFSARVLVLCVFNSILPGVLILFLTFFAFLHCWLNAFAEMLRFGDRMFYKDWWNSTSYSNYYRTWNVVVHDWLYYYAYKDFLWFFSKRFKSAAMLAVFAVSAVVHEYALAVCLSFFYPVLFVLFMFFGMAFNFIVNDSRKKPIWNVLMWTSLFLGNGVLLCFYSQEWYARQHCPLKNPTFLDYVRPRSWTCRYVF
Kind of test: Inhibitory activity against ACAT of HepG2 cells derived from human liver cancer cells. As to conditions: radio-labelled oleic acid/BSA complex, cholesterol oleate produced. The format is cell-based. The method, then:
Inhibitory Activity against ACAT of HepG2 cells Derived from Human Liver Cancer Cells Inhibitory activities of the compounds of the present invention against ACAT were measured by the method described below. HepG2 cells derived from human liver cancer cells were used for the measurement of the ACAT activity. A complex of radio-labelled oleic acid and bovine serum albumin was added to a culture of the cells, and the activity was measured by observing the amount of radio-labelled cholesterol oleate produced from the radio-labelled oleic acid in the cells.
In turn, `CCCCCN(Cc1cc(-n2ccnc2)ccc1OC)C(=O)Nc1c(C)cccc1OCCCN1CCN(c2ccccc2)CC1` [Example 1, N-{5-(1-imidazolyl)-2-methoxyphenyl}methyl-N-(1-pentyl)-N'-[2-{3-(4-phenyl-1-piperazinyl)propoxy}-6-methylphenyl]urea] returned an IC50 of 128 nM. On the same count and under the same terms, next, `CCCCCN(Cc1cc(-n2ccnc2)ccc1OC)C(=O)Nc1c(C)cccc1OCCCN1CCN(c2ccccc2)CC1` [Example 2, N-{5-(1-imidazolyl)-2-methoxyphenyl}methyl-N-(1-pentyl)-N'-[2-{3-(4-phenyl-1-piperazinyl)propoxy}-6-methyphenyl]urea trihydrochloride]: 101 nM; `CCCCCCCN(Cc1cccc(OC)c1OCc1ccccc1)C(=O)Nc1c(OCCCN2CCN(c3ccccc3)CC2)ccc2c1CCCC2` [Example 8]: 414 nM; `COc1cccc(CN(CCCc2ccccc2)C(=O)Nc2c(OCCCN3CCN(c4ccccc4)CC3)ccc3c2CCCC3)c1OCc1ccccc1` [Example 9]: 366 nM. Same read-out and setting: next, `CCCCCN(Cc1ccc(-n2ccnc2)cc1)C(=O)Nc1c(OCCCN2CCN(c3ccccc3)CC2)ccc2c1CCCC2` [Example 10]: 389 nM; `CCCCCN(Cc1ccc(-n2ccnc2)cc1)C(=O)Nc1c(C)cccc1OCCCN1CCN(c2ccccc2)CC1` [Example 11]: 189 nM; `CCCCCN(Cc1ccc(-n2ccnc2)cc1)C(=O)Nc1c(C)cccc1OCCCN1CCN(c2ccccn2)CC1` [Example 12]: 595 nM. The same measure, in the same setting: next, `COc1ccc(-n2ccnc2)cc1CN(Cc1ccccc1)C(=O)Nc1c(OCCCN2CCN(c3ccccc3)CC2)ccc2c1CCCC2` [Example 13]: 67 nM; `COc1ccc(-n2ccnc2)cc1CN(Cc1ccccc1)C(=O)Nc1c(C)cccc1OCCCN1CCN(c2ccccc2)CC1` [Example 14]: 240 nM; `CCCCCN(Cc1ccccc1-n1ccnc1)C(=O)Nc1c(C)cccc1OCCCN1CCN(c2ccccc2)CC1` [Example 15]: 516 nM. In the case of `CCCCCN(Cc1cc(-n2ccnc2)ccc1OC)C(=O)Nc1c(C)cccc1OCCCN1CCN(c2ccccn2)CC1` [Example 17], the IC50 is 363 nM. Same read-out and setting: to `CCCCCN(Cc1cc(-n2ccnc2)ccc1OC)C(=O)Nc1c(C)cccc1OCCN1CCN(c2ccccc2)CC1` [Example 18] belongs 164 nM; to `CCCN(Cc1cc(-n2ccnc2)ccc1OC)C(=O)Nc1c(C)cccc1OCCCN1CCN(c2ccccc2)CC1` [Example 19], 156 nM; to `CCCCCN(Cc1cc(-n2ccnc2)cc(OC)c1OC)C(=O)Nc1c(C)cccc1OCCCN1CCN(c2ccccc2)CC1` [Example 20], 851 nM.

`CCCN(Cc1cc(-n2ccnc2)cc2c1OCO2)C(=O)Nc1c(C)cccc1OCCCN1CCN(c2ccccc2)CC1` [Example 23] came in with an IC50 of 634 nM. On the same count and under the same terms, next, `CCCCCN(Cc1cc(-n2ccnc2)cc2c1OCO2)C(=O)Nc1c(C)cccc1OCCCN1CCN(c2ccccc2)CC1` [Example 24]: 449 nM; `CCCCCN(Cc1cccc(OC)c1OCc1ccccn1)C(=O)Nc1c(C)cccc1OCCCN1CCN(c2ccccc2)CC1` [Example 26]: 743 nM.

Compound `CCCCCN(Cc1cccc(OC)c1OCc1ccccn1)C(=O)Nc1c(OCCCN2CCN(c3ccccc3)CC2)ccc2c1CCCC2` [Example 28] showed an IC50 of 732 nM. The same measure, in the same setting: next, `CCCCCN(Cc1cc(-n2ccnc2)ccc1OCc1ccccn1)C(=O)Nc1c(C)cccc1OCCCN1CCN(c2ccccc2)CC1` [Example 30]: 234 nM; `CCCCCN(Cc1cc(-n2ccnc2)ccc1OCc1ccccn1)C(=O)Nc1c(C)cccc1OCCCN1CCN(c2ccccc2)CC1` [Example 31]: 138 nM. For the compound `CCCCCN(Cc1ccccc1OCc1ccccn1)C(=O)Nc1c(C)cccc1OCCCN1CCN(c2ccccc2)CC1` [Example 32], it took 600 nM to reach half-maximal inhibition (IC50). As for `CCCCCN(Cc1ccc(OCc2ccccn2)cc1)C(=O)Nc1c(C)cccc1OCCCN1CCN(c2ccccc2)CC1` [Example 34], 89 nM corresponded to half-maximal inhibition (IC50). Same read-out and setting: next, `CCCCCN(Cc1cccc(OCc2ccccn2)c1)C(=O)Nc1c(C)cccc1OCCCN1CCN(c2ccccc2)CC1` [Example 36]: 270 nM; `CCCCCN(Cc1cccc(-n2ccnc2)c1)C(=O)Nc1c(C)cccc1OCCCN1CCN(c2ccccc2)CC1` [Example 37]: 220 nM. On the same count and under the same terms, next, `CCCCCN(Cc1ccc(-n2ccnc2)cc1)C(=O)Nc1c(C)cccc1OCCCN1CCN(c2ccccc2)CC1` [Example 38]: 282 nM; `CCCCCN(Cc1ccc(OC)cc1OCc1ccccn1)C(=O)Nc1c(C)cccc1OCCCN1CCN(c2ccccc2)CC1` [Example 40]: 320 nM; `CCCCCN(Cc1ccc(OCc2ccccn2)c(OC)c1)C(=O)Nc1c(C)cccc1OCCCN1CCN(c2ccccc2)CC1` [Example 44]: 400 nM. Consider `CCCCCN(CCc1ccc(-n2ccnc2)c(OC)c1)C(=O)Nc1c(C)cccc1OCCCN1CCN(c2ccccc2)CC1` [Example 46], for which half-maximal inhibition (IC50) required 76 nM. Same read-out and setting: next, `CCCCCN(Cc1cc(-n2cccn2)ccc1OC)C(=O)Nc1c(C)cccc1OCCCN1CCN(c2ccccc2)CC1` [Example 47]: 81 nM; `CCCCCN(Cc1cc(-n2cncn2)ccc1OC)C(=O)Nc1c(C)cccc1OCCCN1CCN(c2ccccc2)CC1` [Example 49]: 45 nM. Still for that read-out and setting: to `CCCCCN(CCc1cc(-n2ccnc2)cc2c1OCO2)C(=O)Nc1c(C)cccc1OCCCN1CCN(c2ccccc2)CC1` [Example 53] belongs 606 nM; to `CCCCCN(Cc1cc(-n2cccc2)ccc1OC)C(=O)Nc1c(C)cccc1OCCCN1CCN(c2ccccc2)CC1` [Example 55], 483 nM; to `CCCCCN(CCc1cc(-n2ccnc2)ccc1OC)C(=O)Nc1c(C)cccc1OCCCN1CCN(c2ccccc2)CC1` [Example 56], 54 nM. Turning to `CCCCCN(Cc1cc(OC)ccc1-n1ccnc1)C(=O)Nc1c(C)cccc1OCCCN1CCN(c2ccccc2)CC1` [Example 57], 220 nM corresponded to half-maximal inhibition (IC50). On the same count and under the same terms, to `O=C(Nc1c(OCCCN2CCN(c3ccccc3)CC2)ccc2c1CCCC2)N(CCCc1ccccc1)Cc1ccccc1OCc1ccccn1` [Example 67] belongs 124 nM; to `CCCN(Cc1ccccc1OCc1ccccn1)C(=O)Nc1c(OCCCN2CCN(c3ccccc3)CC2)ccc2c1CCCC2` [Example 68], 187 nM; to `CCCN(Cc1ccccc1OCc1cccnc1)C(=O)Nc1c(OCCCN2CCN(c3ccccc3)CC2)ccc2c1CCCC2` [Example 69], 289 nM. Same read-out and setting: to `CCCN(Cc1ccccc1OCc1ccncc1)C(=O)Nc1c(OCCCN2CCN(c3ccccc3)CC2)ccc2c1CCCC2` [Example 70] belongs 631 nM; to `CN(Cc1ccccc1OCc1ccccn1)C(=O)Nc1c(OCCCN2CCN(c3ccccc3)CC2)ccc2c1CCCC2` [Example 71], 635 nM. Consider `COc1ccc(-n2ccnc2)cc1CN(C(=O)Nc1c(C)cccc1OCCCN1CCN(c2ccccc2)CC1)C1CCCC1` [Example 72], for which the IC50 worked out at 262 nM. Still for that read-out and setting: next, `COc1ccc(-n2ccnc2)cc1CN(CC(C)C)C(=O)Nc1c(C)cccc1OCCCN1CCN(c2ccccc2)CC1` [Example 73]: 458 nM; `COc1ccc(-n2ccnc2)cc1CN(C(=O)Nc1c(C)cccc1OCCCN1CCN(c2ccccc2)CC1)C(C)C` [Example 74]: 386 nM.

The target of another test is T2, ACAT in foamed macrophages (Mus musculus, UniProt Q61263).
T2 construct: endogenous in cells; host or cells: peritoneal macrophages of ddY female mice, foamed with acetylated LDL
T2 sequence (Q61263 1-540): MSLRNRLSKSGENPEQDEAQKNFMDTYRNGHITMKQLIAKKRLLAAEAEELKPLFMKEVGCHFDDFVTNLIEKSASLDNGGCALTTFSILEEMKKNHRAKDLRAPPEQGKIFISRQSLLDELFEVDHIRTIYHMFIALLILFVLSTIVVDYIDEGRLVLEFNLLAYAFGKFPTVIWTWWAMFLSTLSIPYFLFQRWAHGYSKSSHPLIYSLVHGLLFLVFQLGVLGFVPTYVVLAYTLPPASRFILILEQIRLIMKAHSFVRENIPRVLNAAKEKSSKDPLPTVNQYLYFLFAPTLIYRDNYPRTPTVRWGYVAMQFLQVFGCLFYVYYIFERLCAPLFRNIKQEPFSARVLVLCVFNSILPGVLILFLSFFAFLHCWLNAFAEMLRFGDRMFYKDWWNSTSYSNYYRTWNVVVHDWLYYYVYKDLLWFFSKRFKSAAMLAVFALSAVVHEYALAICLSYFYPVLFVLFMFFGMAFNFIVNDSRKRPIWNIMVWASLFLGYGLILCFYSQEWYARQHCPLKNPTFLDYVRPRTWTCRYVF
In words: Inhibitory activity against ACAT derived from foamed macrophages. The format is cell-based, mouse (ddY female mice). The note with it: foamed macrophages from ddY female mice; acetylated LDL, 24 hours; cholesterol oleate produced; read-out: Inhibitory activity against ACAT, Macrophage (IC50). The method, then: Inhibitory Activity against ACAT Derived from Foamed Macrophages
Inhibitory activity of the compounds of the present invention against ACAT in foamed macrophages was measured by the methods set out below. Acetylated low density lipoprotein was added to macrophages taken from abdominal cavities of ddY female mice and the cells were incubated for 24 hours to obtain foaming macrophages. These cells accumulated a large amount of cholesterol (ester) inside the cells, and are used as a model of arteriosclerosis lesion. ACAT activity of the cells was determined by adding a complex of radio-labelled oleic acid and bovine serum albumin to the cell culture, and observing the amount of radio-labelled cholesterol oleate that was produced from the radio-labelled oleic acid in the cells. The inhibitory activities of the compounds of the present invention against ACAT were measured as follows: percent reduction rates of enzymatic activity by the addition of given concentrations of test compounds was observed on the basis of the amount of the produced cholesterol oleate in the control group without the addition of a test compound, and by using the results, IC50, i.e., concentrations of tested compounds required to inhibit 50% of the enzyme activity, was calculated.
With `CCCCCN(Cc1cc(-n2ccnc2)ccc1OC)C(=O)Nc1c(C)cccc1OCCCN1CCN(c2ccccc2)CC1` [Example 2, N-{5-(1-imidazolyl)-2-methoxyphenyl}methyl-N-(1-pentyl)-N'-[2-{3-(4-phenyl-1-piperazinyl)propoxy}-6-methyphenyl]urea trihydrochloride], the IC50 turned out to be 131 nM. Same read-out and setting: next, `CCCCCN(Cc1cc(-n2ccnc2)ccc1OC)C(=O)Nc1c(C)cccc1OCCN1CCN(c2ccccc2)CC1` [Example 18]: 440 nM; `CCCCCN(Cc1ccc(OCc2ccccn2)cc1)C(=O)Nc1c(C)cccc1OCCCN1CCN(c2ccccc2)CC1` [Example 34]: 119 nM.
